Source: patent US20110312934A1, “2-ALKYL-6-CYCLOAMINO-3-(PYRIDIN-4-YL)IMIDAZO[1,2-B]-PYRIDAZINE DERIVATIVES, PREPARATION THEREOF, AND THERAPEUTIC APPLICATION THEREOF” (SANOFI-AVENTIS, priority 2008, published 2011)

Assays:
[1] = test system: Mper1-luc Rat-1 (P2C4) fibroblasts; experiment: Circadian cell assay (mPer1 luciferase reporter, period prolongation); format: cell-based; conditions: effective concentration that induced a 1-hour prolongation of the circadian period, interpolated from hyperbolic curve
Description: Mper1-luc Rat-1 (P2C4) fibroblast cultures were prepared by dividing the cultures every 3-4 days (approximately 10-20% of confluence) on 150 cm^2 degassed polystyrene tissue culture flasks (Falcon® #35-5001) and maintained in growth medium [EMEM (Cellgro #10-0,0-CV); 10% foetal bovine serum (FBS; Gibco #16000-044); and 50 I.U./ml of penicillin-streptomycin (Cellgro #30-001-CI)] at 37° C. and under 5% CO2.
Cells obtained from Rat-1 fibroblast cultures at 30-50% of confluence as described above were co-transfected with vectors containing the selection marker for resistance to zeocin for a stable transfection and a luciferase reporter gene controlled by the mPer-1 promoter. After 24 to 48 hours, the cultures were divided on 96-well plates and maintained in growth medium supplemented with 50-100 μg/ml of zeocin (Invitrogen® #45-0430) for 10-14 days. The zeocin-resistant stable transfectants were evaluated for the expression of the reporter by adding 100 μM luciferin (Promega® #E1603®) to the growth medium and by assaying the luciferase activity on a TopCount® scintillation counter (Packard Model #C384V00). The Rat-1 cell clones expressing both zeocin resistance and lucerifase activity controlled by mPer1 were serum-shock synchronized with 50% horse serum [HS (Gibco® #16050-122)] and the activity of the circadian reporter was evaluated. The P2C4 clone of Mper1-luc Rat-1 fibroblasts was selected to test the compound.
Mper1-luc Rat-1 (P2C4) fibroblasts at 40-50% of confluence, obtained according to the protocol described above, were plated out onto 96-well opaque tissue culture plates (Perkin Elmer® #6005680). The cultures are maintained in growth medium supplemented with 100 μg/ml of zeocin (Invitrogen #45-0430) until they reach 100% of confluence (48-72 h). The cultures were then synchronized with 100 μl of synchronization medium [EMEM (Cellgro #10-0,0-CV); 100 I.U./ml of penicillin-streptomycin (Cellgro #30-001-C1); 50% HS (Gibco #16050-122)] for 2 hours at 37° C. and under 5% CO2. After synchronization, the cultures were rinsed with 100 μl of EMEM (Cellgro #10-010-CV) for 10 minutes at ambient temperature. After rinsing, the medium was replaced with 300 μl of CO2 independent medium [CO2I (Gibco #18045-088); 2 mM L-glutamine (Cellgro #25-005-C1); 100 U.I./ml of penicillin-streptomycin (Cellgro #30-001-C1); 100 μM luciferin (Promega #E 1603)]. […]
The two methods produced a virtually identical period estimation on a range of circadian periods. […] The data were analysed by adjusting a hyperbolic curve to the data expressed as change of period (y-axis) as a function of the concentration of the test compound (x-axis) in the XLfit™ software and the CE Delta (t+1 h) was interpolated from this curve.

melting point: 166 to 168 °C
SMILES: Cc1nc2ccc(N3CCNCC3)nn2c1-c1ccncc1 [Compound 1, 2-Methyl-6-piperazin-1-yl-3-pyridin-4-yl-imidazo[1,2-b]pyridazine]
CE Delta (t + 1 h) [1]: 20 nM
